# Source: US7850981B2, “Immuno-adjuvant PDT treatment of metastatic tumors” (QLT, Inc., priority 1999, dated 2010)
# Marks after values point to notes of the source that are not given here.
# How the values were obtained:
# [1] = tested on: M1 (rhabdomyosarcoma); experiment: Reimplantation of M1 tumor on Day 20 into tumor-free mice treated with PDT (verteporfin 1.0 mg/kg i.v. + light) with or without DETOX B-SE; type: in vivo; settings: for Survival (tumour less than 1 cm long, not euthanized) / Tumor-take Rate: reimplanted Day 20
# Source text: The thirty mice in treatment group 7 were implanted at the same time as those reimplanted on Groups 1-6 to provide a control for the rate of tumor-take. Ten mice were implanted on each of three separate batches of 10 mice to match the days of reimplantation of 1-6.
# High dose PDT gave approximately 60% fewer tumors (n=9), and this percentage was not changed by the addition of high dose immunoadjuvant (n=5). The lower dose of immunoadjuvant combined with high dose PDT gave more protection against rechallenge (20% take rate, n=6).
# [2] = tested on: B16-F1 melanoma; experiment: B16-F1 melanoma: PDT (verteporfin 1.0 mg/kg i.v., 100 J/cm^2) with or without intratumoral TITERMAX, then experimental pulmonary metastases; type: in vivo, C57BL/6 mice
# Procedure: Male, C57BL/6 mice were obtained from Charles River Canada (Montreal, QC) at 6 to 8 weeks of age. The B 16-F0 and B 16-F1 melanoma cell lines were obtained from the […] (ATC™) (Manassas, Va.) and grown as cell cultures in Dulbecco's Modified Eagle Medium (DMEM) (Gibco) supplemented with 10% fetal bovine serum (Sigma). The cells adhered to tissue culture plates, were removed for passage with 0.25% trypsin with 1.0 mM ethylenediaminetetraacetic acid (EDTA) (Gibco), and were cryo-preserved in liquid nitrogen in DMEM plus 40% FBS and 10% DMSO. Mice were injected with 5×10^5 tumor cells in a total volume of 50 μL subcutaneously into the shaved, right flank. The tumor size was monitored daily by measuring the diameter with vernier calipers and were treated when the tumors reached approximately 5 mm in diameter. […] Subsequently the B16-F1 cell line was used for all experiments.
# PDT treatment of mice bearing the B16-F1 tumor was performed as previously described for the M1 rhabdomyosarcoma mouse tumor (Richter et al., 1987; Richter et al., 1988; Richter et al., 1991). Each mouse was weighed, warmed under infrared light for less than 5 min to dilate the blood vessels, restrained, and injected intravenously (tail vein) with verteporfin at a concentration of 1.0 mg/kg body weight using a 28G needle. […] Following treatment, animals were monitored daily for tumor response. […]
# [3] = tested on: Lewis Lung Carcinoma (LLC); experiment: In vitro lymphocyte proliferation assay (MTS) with lymph node cells of LLC-bearing mice treated with PDT or PDV; type: cell-based, C57B1/6 mice; settings: mean±standard deviation; lymph nodes 7-10 days after therapy; cultured with LLC antigen; PDV n=7 (ConA responders)
# Source text: In order to assess the potential usefulness of various adjuvants and treatment parameters in PDV, an in vitro lymphocyte proliferation assay was designed and employed in a murine tumor model. The assay measures tumour-specific lymphocyte (tumor immunity) responses from animals treated with PDT and PDT combined with adjuvant (PDV). This permits the rapid evaluation of various PDT/adjuvant administration protocols.
# Female C57B1/6 mice are implanted subcutaneously on the shaved right flank with the Lewis Lung Carcinoma (LLC) cell line. When tumours develop to approximately 5 mm diameter animals are treated with PDT or PDV. PDT is performed by delivering 1.0 mg/kg verteporfin i.v. 30 min prior to illumination of 125 J/cm^2 delivered at 70 mW/cm^2 (treatment time=29 min, 4 sec). […] Animals are monitored for general health and re-growth of the tumour following therapy.
# Seven to 10 days following therapy, animals are sacrificed and inguinal, axillary, cervical, and periaortic lymph nodes are aseptically removed. […] Following 3 to 5 days of culture, the degree of proliferation is assessed using 3-(4,5-dimethylthiazol-2-yl)-5-(3-carboxymethoxyphenyl)-2-(4-sulfophenyl)-2H-tetrazolium, inner salt (Owen's reagent, MTS, from PROMEGA™), a variation of the MTT assay which produces a soluble formazan product which absorbs light at 490 nm. […]
# [4] = Optimal PDT (75 J/cm^2), n = 9, day 23 post-PDT
# [5] = Optimal PDT (75 J/cm^2), n = 9, day 26 post-PDT
# [6] = Optimal PDT (75 J/cm^2), n = 9, day 29 post-PDT
# [7] = Optimal PDT (75 J/cm^2), n = 9, day 32 post-PDT
# [8] = Optimal PDT (75 J/cm^2), n = 9, day 35 post-PDT
# [9] = Optimal PDT (75 J/cm^2), n = 9, day 38 post-PDT
# [10] = Optimal PDT (75 J/cm^2), n = 9, day 41 post-PDT
# [11] = Optimal PDT (75 J/cm^2), n = 9, day 44 post-PDT
# [12] = Optimal PDT (75 J/cm^2), n = 9, day 47 post-PDT
# [13] = Optimal PDT (75 J/cm^2), n = 9, day 50 post-PDT
# [14] = Sub-optimal PDT (25 J/cm^2), n = 7, day 23 post-PDT
# [15] = Sub-optimal PDT (25 J/cm^2), n = 7, day 26 post-PDT
# [16] = Sub-optimal PDT (25 J/cm^2), n = 7, day 29 post-PDT
# [17] = Sub-optimal PDT (25 J/cm^2), n = 7, day 32 post-PDT
# [18] = Sub-optimal PDT (25 J/cm^2), n = 7, day 35 post-PDT
# [19] = Sub-optimal PDT (25 J/cm^2), n = 7, day 38 post-PDT
# [20] = Sub-optimal PDT (25 J/cm^2), n = 7, day 41 post-PDT
# [21] = Sub-optimal PDT (25 J/cm^2), n = 7, day 44 post-PDT
# [22] = Sub-optimal PDT (25 J/cm^2), n = 7, day 47 post-PDT
# [23] = Sub-optimal PDT (25 J/cm^2), n = 7, day 50 post-PDT
substance,measurement,setting,value
benzoporphyrin derivative monoacid ring A [verteporfin],fewer tumors upon reimplantation than in untreated naïve mice,"[1]; High dose PDT (75 J/cm^2), n=9",approximately 60%
same,protection against rechallenge relative to controls,"[1]; Low dose PDT alone (25 J/cm^2), superior to low dose PDT combined with low-dose adjuvant",substantial protection
same,"Survival (tumour less than 1 cm long, not euthanized)",[1]; [4],100%
same,Tumor-take Rate,[1]; [4],0%
same,"Survival (tumour less than 1 cm long, not euthanized)",[1]; [5],100%
same,Tumor-take Rate,[1]; [5],44^d %
same,"Survival (tumour less than 1 cm long, not euthanized)",[1]; [6],100%
same,Tumor-take Rate,[1]; [6],44^c %
same,"Survival (tumour less than 1 cm long, not euthanized)",[1]; [7],100%
same,Tumor-take Rate,[1]; [7],44^c %
same,"Survival (tumour less than 1 cm long, not euthanized)",[1]; [8],89^c %
same,Tumor-take Rate,[1]; [8],44^c %
same,"Survival (tumour less than 1 cm long, not euthanized)",[1]; [9],89%
same,Tumor-take Rate,[1]; [9],44^c %
same,"Survival (tumour less than 1 cm long, not euthanized)",[1]; [10],89%
same,Tumor-take Rate,[1]; [10],44^c %
same,"Survival (tumour less than 1 cm long, not euthanized)",[1]; [11],78%
same,Tumor-take Rate,[1]; [11],44^c %
same,"Survival (tumour less than 1 cm long, not euthanized)",[1]; [12],56%
same,Tumor-take Rate,[1]; [12],44^c %
same,"Survival (tumour less than 1 cm long, not euthanized)",[1]; [13],56%
same,Tumor-take Rate,[1]; [13],44^c %
same,"Survival (tumour less than 1 cm long, not euthanized)",[1]; [14],100%
same,Tumor-take Rate,[1]; [14],0%
same,"Survival (tumour less than 1 cm long, not euthanized)",[1]; [15],100%
same,Tumor-take Rate,[1]; [15],43%
same,"Survival (tumour less than 1 cm long, not euthanized)",[1]; [16],100%
same,Tumor-take Rate,[1]; [16],43%
same,"Survival (tumour less than 1 cm long, not euthanized)",[1]; [17],100%
same,Tumor-take Rate,[1]; [17],43%
same,"Survival (tumour less than 1 cm long, not euthanized)",[1]; [18],100%
same,Tumor-take Rate,[1]; [18],43%
same,"Survival (tumour less than 1 cm long, not euthanized)",[1]; [19],100%
same,Tumor-take Rate,[1]; [19],43%
same,"Survival (tumour less than 1 cm long, not euthanized)",[1]; [20],100%
same,Tumor-take Rate,[1]; [20],29%
same,"Survival (tumour less than 1 cm long, not euthanized)",[1]; [21],86%
same,Tumor-take Rate,[1]; [21],29%
same,"Survival (tumour less than 1 cm long, not euthanized)",[1]; [22],86%
same,Tumor-take Rate,[1]; [22],29%
same,"Survival (tumour less than 1 cm long, not euthanized)",[1]; [23],86%
same,Tumor-take Rate,[1]; [23],29%
same,animals that required repeated treatment to complete the tumor cure,"[2]; of five animals per group, subcutaneous B16-F1 tumor",3
same,lung colonies,"[2]; one of the 5 animals treated with PDT alone, 14 days after i.v. tumor cells",6
same,"lymphocyte proliferation, percent of lymphocytes without antigen",[3],108±11%
